Assay results from article PMC10380488, “Cx43 Hemichannel and Panx1 Channel Modulation by Gap19 and ^10Panx1 Peptides” (International Journal of Molecular Sciences, 2023).
Values joined by “and” are separate entries in the source; they are usually repeats but may differ in a detail not shown here. Identical values can stand only once. “Also recorded” adds a separate entry of the source.

Legend:
Panx1 channels [1] = target: T1, Panx1 channels (Rattus norvegicus, UniProt P60570); assay: Whole-cell patch-clamp, unitary Panx1 channel current activity in C6-Panx1 cells; assay type: cell-based; settings: for nominal open probability (NPo) of Panx1 channels: C6-Panx1, step −30 to +70 mV, 30 s, mean ± SEM, control 0.37 ± 0.02
T1 construct: expressed in transfected cells; host or cells: C6 glioma cells (C6-Panx1), gift of Dr Christian C; Naus
Text: (§1) We used HeLa cells stably transfected with Cx43 (HeLa-Cx43 [56]); endogenous expression of Panx1 is very low or absent in non-transfected HeLa cells. C6 glioma cells stably transfected with Panx1 (C6-Panx1, C-terminally myc-tagged; kind gift of Dr Christian C. Naus, University of British Columbia, Canada) were used for the Panx1 channel studies; Cx43 expression is low or undetectable [61] in these cells. HeLa cells were maintained in Dulbecco’s modified Eagle’s medium (DMEM; Invitrogen, Gent, Belgium), and C6 cells were grown in DMEM:Ham’s F12 (1:1—Invitrogen, Merelbeke, Belgium), all supplemented with 10% fetal bovine serum (FBS), 2 mM glutamine, 10 U/mL penicillin, 10 µg/mL streptomycin and 0.25 µg/mL fungizone. Stable exogenous expressions were maintained by supplementation of 1 and 3 µg/mL puromycin (Sigma-Aldrich, Bornem, Belgium) for HeLa-Cx43 and C6-Panx1 cells, respectively. Stable transfectants were subcultured into puromycin-free medium 2 days prior to experimentation. Cells were maintained at 37 °C and 10% (HeLa-Cx43) or 5% (C6-Panx1) CO2.
(§2) All experimental data were obtained with the patch-clamp technique in whole-cell recording mode on HeLa-Cx43 and C6-Panx1 cells. Extracellular solution was composed of the following (in mM): 150 NaCl, 4 CsCl, 2 CaCl2, 2 MgCl2, 2 pyruvic acid, 5 glucose and 5 HEPES at pH of 7.4, while the pipette solution consisted of the following (in mM): 125 CsCl, 10 sodium aspartate (NaAsp), 0.26 CaCl2, 1 MgCl2, 2 EGTA, 10 tetraethylammonium (TEA)-Cl and 5 HEPES at pH 7.2. The free Ca^2+ concentration of the pipette solution was estimated to be ~50 nM as calculated with WEBMAX (https://somapp.ucdmc.ucdavis.edu/pharmacology/bers/maxchelator/webmaxc/webmaxcS.htm; accessed on 20 September 2020). Whole-cell recording was performed under control conditions and in the presence of Gap19 or ^10Panx1. Gap19 was included in the pipette solution, while ^10Panx1 was added externally and preincubated for 45 min. Recordings were commenced 2 min after establishment of the whole-cell configuration. Currents were recorded with an EPC 7 PLUS patch-clamp amplifier (HEKA Elektronik, Germany). Unitary current activities were elicited by stepping the cells from a holding potential of −30 mV to a membrane potential (Vm) of +70 mV for 30 s. Data were digitized at 4 KHz using an NI USB-6221 data acquisition device (National Instruments, Austin, TX, USA) and WinWCP acquisition software designed by Dr. J. Dempster (University of Strathclyde, United Kingdom). Measured currents were filtered by a 7-pole Bessel low-pass filter at 1 KHz cut-off frequency. Transition analysis was performed as reported in [16]. Unitary channel conductances were determined from transition histograms as well as from all-point histograms and were obtained by fitting their frequencies to Gaussian distributions. Channel opening activity is expressed as nominal open probability NPo, denoting the number of active channels in the patch multiplied by the open probability.
(§3) Data were processed using Clampfit version 11.2 (Molecular Devices, San Jose, USA) and HemiGUI software as previously described. Results are expressed as mean ± SEM (unless otherwise stated), with n giving the number of traces, N the number of cells, and N the number of experiments on different cell culture dishes. Multiple groups were compared by one-way analysis of variance with post-hoc Dunnett’s or Bonferroni multiple comparison tests, making use of GraphPad PRISM 5.0 (GraphPad Software, Inc., La Jolla, CA). Results were considered statistically significant when p ≤ 0.05 (*; # for p ≤ 0.05, **; ## for p ≤ 0.01, ***; ### for p ≤ 0.001, and ****; #### for p ≤ 0.0001).

Cx43 HCs [2] = assay: Whole-cell patch-clamp, unitary Cx43 hemichannel current activity in HeLa-Cx43 cells; assay type: cell-based; settings: for nominal open probability (NPo) of Cx43 HCs: HeLa-Cx43, step −30 to +70 mV, 30 s, mean ± SEM, control 0.48 ± 0.02; for conductance γ of Cx43 HC, subconductance state, transition histogram / unitary conductance γ of Cx43 HC, fully open state, transition histogram: Figure 3B, mean ± SD
Text: as §1, §2, §3

Cx43 or Panx1 channels = settings: 100 μM extracellular; HeLa cells expressing Cx43 or Panx1; cited from earlier work
Text: (§4) Connexins and pannexins are two ubiquitous but distinct protein families forming membrane hemichannels (HCs) and channels in the plasma membrane, respectively. They facilitate the exchange of ions and small molecules (MW ≤ 1.5 kDa) between the intracellular and the extracellular compartment upon opening. Among these respective families, connexin-43 (Cx43) and pannexin-1 (Panx1) are the most abundant isotypes in the human body expressed in a wide array of tissues. Panx1 and Cx43 have several common properties, including the following: (i) an analogous tetra-spanning transmembrane topology with ...

Panx1 channels [3] = target: T1, Panx1 channels; settings: 200 µM extracellular; high extracellular K^+; cited from earlier work
Text: as §4

Cx43 C-terminal tail = settings: cited from earlier work
Cx43 HCs [4] = settings: cited from earlier work
Text: However, this concentration decreases the NPo of Cx43 HCs by ~83% (Figure 2B; for traces, see Figure 3).

[5] = 100 μM Gap19 intracellular, N = 12, n = 98
[6] = 200 μM Gap19 intracellular, N = 15, n = 122

T1 sequence (P60570 whole entry): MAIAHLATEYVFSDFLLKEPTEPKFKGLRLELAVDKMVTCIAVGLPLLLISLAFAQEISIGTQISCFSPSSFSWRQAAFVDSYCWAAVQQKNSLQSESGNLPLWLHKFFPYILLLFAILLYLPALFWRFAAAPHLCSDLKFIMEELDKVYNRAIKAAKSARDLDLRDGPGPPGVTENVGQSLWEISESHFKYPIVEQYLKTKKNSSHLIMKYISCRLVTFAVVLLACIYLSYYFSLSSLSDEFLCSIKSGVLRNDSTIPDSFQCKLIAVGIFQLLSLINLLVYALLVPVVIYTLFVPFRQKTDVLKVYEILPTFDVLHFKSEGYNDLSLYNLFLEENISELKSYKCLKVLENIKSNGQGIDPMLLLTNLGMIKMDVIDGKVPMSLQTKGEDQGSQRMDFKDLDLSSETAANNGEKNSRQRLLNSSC

Question: With KQIEIKKFK [Gap19] as the sequence, how does the “effect on Panx1 channels” value (Panx1 channels [1]; 100 μM Gap19 intracellular) read?
Answer: Its value is “without affecting the Panx1 channels”.

Question: And the “nominal open probability (NPo) of Panx1 channels” value (Panx1 channels [1]; 100 μM Gap19 intracellular (pipette), N = 12 cells, n = 76 traces)?
Answer: Its value is 0.34 ± 0.03.

Question: What about the “nominal open probability (NPo) of Panx1 channels” value (Panx1 channels [1]; 200 μM Gap19 intracellular (pipette), N = 9 cells, n = 70 traces) of the same sequence?
Answer: The value was 0.30 ± 0.03.

Question: What about the “effect on open-state events of Panx1, all-point histograms” value (Panx1 channels [1]; 200 µM Gap19 intracellular, Figure 1C) of the same sequence?
Answer: The value was “some effect; also recorded: to some extent”.

Question: What about the “nominal open probability (NPo) of Panx1 channels” value (Panx1 channels [1]; 500 μM Gap19 intracellular (pipette), N = 10 cells, n = 87 traces) of the same sequence?
Answer: Its value is 0.28 ± 0.03.

Question: And the “reduction of NPo of Panx1 channels” value (Panx1 channels [1]; 500 μM Gap19 intracellular, vs control, significant)?
Answer: The value was ~ 25% and 26%.

Question: What about the “effect on Panx1 channel activity (NPo)” value (Panx1 channels [1]; 100 and 200 μM Gap19 intracellular (below 500 μM)) of the same sequence?
Answer: The value was “did not significantly affect the NPo of the Panx1 channel; also recorded: non-significant effects on Panx1 channel activity; also recorded: without affecting Panx1 channel function; also recorded: No Effect below 500 µM”.

Question: What about the “fast-flickering closures of Panx1 channel” value (Panx1 channels [1]; traces of Panx1 channel activity (Supplementary Figure S2)) of the same sequence?
Answer: Its value is “not observed”.

Question: And the “reduction of NPo of Cx43 HCs” value (Cx43 HCs [2]; 100 μM Gap19 intracellular)?
Answer: The value was “significantly reduces the NPo of Cx43 HCs; also recorded: more than halved the NPo”.

Question: And the “nominal open probability (NPo) of Cx43 HCs” value (Cx43 HCs [2]; 100 μM Gap19 intracellular (pipette), N = 12 cells, n = 98 traces)?
Answer: Its value is 0.21 ± 0.02.

Question: And the “nominal open probability (NPo) of Cx43 HCs” value (Cx43 HCs [2]; 200 μM Gap19 intracellular (pipette), N = 15 cells, n = 122 traces)?
Answer: Its value is 0.18 ± 0.02.

Question: What about the “nominal open probability (NPo) of Cx43 HCs” value (Cx43 HCs [2]; 500 μM Gap19 intracellular (pipette), N = 12 cells, n = 88 traces) of the same sequence?
Answer: The value was 0.08 ± 0.01.

Question: What about the “reduction of NPo of Cx43 HCs” value (Cx43 HCs [2]; 500 μM Gap19 intracellular, vs control) of the same sequence?
Answer: The value was 84%.

Question: And the “conductance γ of Cx43 HC, subconductance state, transition histogram” value (Cx43 HCs [2]; [5])?
Answer: Its value is 86 ± 31 pS.

Question: What about the “unitary conductance γ of Cx43 HC, fully open state, transition histogram” value (Cx43 HCs [2]; [5]) of the same sequence?
Answer: Its value is 201 ± 50 pS.

Question: What about the “conductance γ of Cx43 HC, subconductance state, transition histogram” value (Cx43 HCs [2]; [6]) of the same sequence?
Answer: The value was 87 ± 27 pS.

Question: What about the “unitary conductance γ of Cx43 HC, fully open state, transition histogram” value (Cx43 HCs [2]; [6]) of the same sequence?
Answer: The value was 201 ± 45 pS.

Question: What about the “conductance γ of Cx43 HC, all-point histogram” value (Cx43 HCs [2]; Figure 3C, 100 μM Gap19 intracellular) of the same sequence?
Answer: Its value is 204 ± 46 pS.

Question: What about the “inhibition of Cx43 HC opening activity (in words)” value (Cx43 HCs [2]; Gap19 intracellular / ^10Panx1 extracellular, 100-500 μM (Gap19 100–200 μM)) of the same sequence?
Answer: Its value is “Inhibited; also recorded: concentration-dependent and significant inhibition; also recorded: concentration-dependently inhibits Cx43 HCs; also recorded: significantly inhibits Cx43 HCs”.

Question: And the “effect on Cx43 HC gating (fully open state vs subconductance state)” value (Cx43 HCs [2]; Gap19 intracellular / ^10Panx1 extracellular, from 100 µM)?
Answer: Its value is “reduced the frequency of transitions to the fully open state and increased the propensity of subconductance transitions starting from 100 µM; also recorded: increased gating to the subconductance state; also recorded: acts as a gating modifier, reducing transitions to the fully open state (~210 pS) while increasing the number of transitions to the subconductance state (~80 pS”.

Question: And the “selectivity for Cx43 or Panx1 channels” value (Cx43 or Panx1 channels)?
Answer: The value was “good selectivity”.

Question: And the “effect on ATP release from Panx1-overexpressing cells” value (Panx1 channels [3])?
Answer: The value was “does not affect ATP release”.

Question: And the “interaction with the Cx43 C-terminal tail” value (Cx43 C-terminal tail)?
Answer: The value was “interacts with the Cx43 C-terminal tail”.

Question: What about the “effect on Cx43 HC gating” value (Cx43 HCs [4]) of the same sequence?
Answer: Its value is “gating modifier”.
